In US11331375B2, “Compositions and methods for regulating leukocyte adhesion” (University of Virginia Patent Foundation, priority 2015, dated 2022):

Experiments:
Panx1 channels in HUVEC = molecular target: T1, Panx1 channels in HUVEC (Homo sapiens, UniProt Q96RD7); experiment: YO-PRO-1 dye uptake assay; type: cell-based; conditions: TNFα 30 minutes, dose dependent
T1 construct: Primary human umbilical vein endothelial cells (HUVEC) were purchased from Cell Applications; PromoCell 200K-05; C-12231; host or cells: HUVEC, HSaVEC (primary human venous endothelial cells)
T1 sequence (Q96RD7 whole entry): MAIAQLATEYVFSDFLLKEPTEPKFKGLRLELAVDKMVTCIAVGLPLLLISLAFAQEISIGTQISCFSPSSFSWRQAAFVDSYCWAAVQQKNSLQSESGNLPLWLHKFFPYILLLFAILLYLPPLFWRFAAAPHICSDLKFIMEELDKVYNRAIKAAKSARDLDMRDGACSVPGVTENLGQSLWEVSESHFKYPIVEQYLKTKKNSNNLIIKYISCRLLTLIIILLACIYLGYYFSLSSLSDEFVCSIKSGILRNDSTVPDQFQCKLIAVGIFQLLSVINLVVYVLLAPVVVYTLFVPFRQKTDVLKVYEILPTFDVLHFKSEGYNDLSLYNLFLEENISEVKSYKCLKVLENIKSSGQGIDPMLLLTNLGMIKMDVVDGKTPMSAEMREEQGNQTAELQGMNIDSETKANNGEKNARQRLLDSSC
Experimental: HUVECs were cultured on poly-L-lysine coated coverslips and grown to confluence in EGM. Cells were washed three times with 1× PBS and incubated in fresh EGM for 30 minutes prior to stimulation. To stimulate YO-PRO-1 dye uptake, YO-PRO-1 (1 μM) was added to the media and EC monolayers were treated with TNFα at a range of concentrations (0.1 ng/mL-100 ng/mL) for 30 minutes. At the end of the stimulation, cells were washed 3× with 1× PBS and immediately fixed in 4% PFA. Coverslips were then mounted on microscope slides with DAPI ProlongGold mounting agent and visualized on an Olympus IX81 laser scanning confocal microscope. Dye uptake was quantified as the intensity of YO-PRO-1 fluorescence over time using ImageJ software. For time course analysis, YO-PRO-1 was added to the culture media at various time points after TNFα stimulation and incubated to the 30-minute time point. Data are expressed as mean±SEM (n=3 independent experiments).

Src Family Kinases (SFK) = experiment: Western blot of SFK activation in isolated mesenteric venules; type: cell-based, mouse; conditions: mesenteric venules perfused with TNFα 50 ng/mL 30 minutes
Experimental: Following stimulation with TNFα (in vitro: 10 ng/mL; ex vivo: 50 ng/mL), confluent endothelial cell monolayers or isolated mesenteric venules were homogenized in ice cold Triton extraction buffer (50 mM Tris-HCL, 150 mM NaCl , 5 mM EDTA, 1% deoxycholate, 1% NP-40 and 1% Triton-X100 in phosphate buffered saline and pH adjusted to 7.4) containing protease and phosphatase inhibitors. Cell/Tissue lysates were incubated with rotation at 4° C. for 20 minutes to solubilize proteins, followed by centrifugation for 5 minutes at 13,000× g to pellet cell debris. Protein concentration was quantified using the BCA method. 15-20 μg of total protein was subjected to SDS gel electrophoresis using 4-12% Bis-Tris gels (Invitrogen) and transferred to nitrocellulose membranes for immunoblotting. Membranes were blocked for 1 hr at room temperature with LiCOR blocking solution, then incubated overnight at 4° C. with primary antibodies against pY416SFKs, (BD Biosciences; 1:1000) pY198Panx1 (Alpha Diagnostic Intl (ADI); 1:1000) and GAPDH (Sigma; 1:10,000) or an antibody against the intracellular loop of Panx1 (Panx1-IL) (ADI; 1:1000) (normalization controls). Membranes were then washed and incubated with LiCOR secondary antibodies (1:10,000) and visualized and quantitated using LiCOR Odyssey. […] Data are expressed as mean±SEM (n=3 independent experiments).

HCoAEC = experiment: In vitro ATP release assay, HCoAEC; type: cell-based, human
Experimental: In vitro Human arterial and venous ECs were seeded in 24-well plates pre-coated with 0.2% gelatin and grown to confluency. On the day of experiment, the media was removed from each well and cells were carefully washed twice with warm serum free basal EC medium supplemented with 1% BSA. Cells were then incubated in 300 μL of fresh basal EC medium supplemented with 1% BSA for 30 minutes at 37° C. to allow degradation of extracellular ATP released due to mechanical stimulation during washes. Endogenous ecto-nucleotidases were inhibited by incubating EC monolayers with 300 μM ARL 67156 (Tocris) for 30 minutes at 37° C. Cells were then stimulated with recombinant human TNFα (R&D Systems). For dose response experiments, ECs were incubated with 0.1, 1, 5, 10, 50, or 100 ng/mL recombinant TNFα for 30 minutes at 37° C. […] The role of caspase activation was assessed by inhibition with the pan-caspase blocker Q-VD-OPh (100 μM; Sigma). […] Using a FluoStar Omega luminometer, 50 μL of luciferin:luciferase reagent (ATP bioluminescence assay kit HSII; Roche) was injected into each well and luminescence was recorded following a 5s orbital mix. ATP concentration in each sample was calculated from a standard curve for all experiments. Data are presented as a % change in ATP release from baseline (i.e. unstimulated cells) and expressed as mean±SEM (n=5 independent experiments with triplicate measurements).

[1] = tested on: THP-1 monocyte adhesion to HUVEC; experiment: Static adhesion assay, THP-1 monocytes on HUVEC; type: cell-based, human; conditions: HUVEC monolayers activated with TNFα for 30 minutes
Experimental: HUVECs were seeded on gelatin-coated glass coverslips in 6-well plates and grown to confluence. On the day of the experiment, cells were washed 2× with 1× PBS and incubated for 30 minutes in basal EGM supplemented with 1% BSA in the presence or absence of pharmacological inhibitors. During this incubation period, human THP-1 monocytes were loaded with Calcein-AM (Invitrogen; 5 μg/mL) for 30 minutes at 37° C. Cells were then pelleted by brief centrifugation and excess calcein was removed by washing THP-1 cells 3 times in 1× PBS. Next, HUVECs were stimulated with TNFα (10 ng/mL) for 30 minutes. Following EC activation, calcein-loaded THP-1 monocytes were added to EC monolayers and incubated for 20 minutes at 37° C. to allow THP-1 to contact ECs. Monolayers were then washed 3× with 1× PBS and fixed in ice cold 4% PFA. Following fixation, coverslips were removed from the 6-well plates and mounted on glass microscope slides with Prolong Gold anti-fade mountant with DAPI (Life Technologies). Fluorescent micrographs were obtained at 10×magnification and the number of adherent THP-1 monocytes/ECs was quantified in 5 randomized regions/slide. Data are expressed as mean±SEM (n=3 independent experiments).

Substance: TNFα
- intracellular YO-PRO-1 dye accumulation (Panx1 channels in HUVEC): significant increase
- SFK activation (Src Family Kinases (SFK)): increasing SFK activation
- ATP release on cytokine stimulation (HCoAEC): failed to release ATP
- increase of THP-1 monocyte adhesion [1]: ~4 fold
